Experimental data published in publication PMC8900824, “Interactions between 2′-fluoro-(carbamoylpyridinyl)deschloroepibatidine analogues and acetylcholine-binding protein inform on potent antagonist activity against nicotinic receptors” (Acta Crystallographica. Section D, Structural Biology, 2022).
“And” between values parts separate entries of the source, which are not always exact repeats. Identical values can stand only once. Like-named read-outs stand apart in the source and are kept apart here.

Key:
[1] = molecular target: α4β2 nAChR; conditions: cited from earlier work
[2] = system: nicotine-induced antinociception; conditions: in vivo; ref Ondachi et al., 2016; cited from earlier work
[3] = molecular target: T1, AcAChBP (Aplysia californica, UniProt Q8WSF8, A155V/A60V); experiment: Kd determination by biolayer interferometry (BLI) on immobilized AcAChBP; assay type: binding; conditions: 25°C, values with standard errors
T1 construct: made in house; host or cells: Spodoptera frugiperda (Sf9) cells, baculovirus (Bac-to-Bac)
T1 sequence (Q8WSF8 entry or part of it A60V/A155V): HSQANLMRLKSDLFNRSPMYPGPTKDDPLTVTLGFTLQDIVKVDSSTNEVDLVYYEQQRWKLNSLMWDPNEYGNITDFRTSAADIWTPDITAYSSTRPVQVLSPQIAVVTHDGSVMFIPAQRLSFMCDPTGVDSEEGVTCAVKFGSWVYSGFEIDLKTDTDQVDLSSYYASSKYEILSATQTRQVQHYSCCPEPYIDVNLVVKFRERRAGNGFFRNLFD
Procedure: The K d values of compounds 1–6 were determined using an Octet RED system (Forté-Bio). AcAChBP (0.5 mg ml^−1 in buffer A) was immobilized on Ni^2+–NTA sensors for 600 s, followed by the removal of non-immobilized protein (600 s) and baseline stabilization (120 s). Association and dissociation measurements were obtained at 25°C for six concentrations of each compound (1.7–410 nM) diluted in buffer A plus 1% DMSO. BLI assays were conducted with a baseline measurement in buffer (60 s), an association measurement in the well containing the compound (120 s) and a dissociation measurement in buffer (120 s). Data processing and analysis were performed with Octet RED Data Analysis version 7.1 (Forté-Bio), where the background response of immobilized AcAChBP in buffer was subtracted.

[4] = system: homomeric α7 nAChR; conditions: ref Ondachi et al., 2016, cited from earlier work; for agonist/antagonist effect on α7 nAChR: homomeric α7
[5] = system: recombinant α4β2 nAChR; conditions: recombinant receptor, electrophysiology; ref Ondachi et al., 2016; cited from earlier work
[6] = molecular target: T1, AcAChBP; conditions: read-out: AcAChBP, Kd; isothermal titration calorimetry; ref Rucktooa et al., 2012; cited from earlier work
[7] = molecular target: T1, AcAChBP; set-up: method as in Hansen et al., 2005; conditions: read-out: AcAChBP, Kd; tryptophan fluorescence-quenching assay; ref Hansen et al., 2005; cited from earlier work
[8] = system: recombinant α3β4 nAChR; conditions: recombinant receptor, electrophysiology; ref Ondachi et al., 2016; cited from earlier work
[9] = [3H]-epibatidine competition assay, values with standard errors, ref Ondachi et al., 2016

## NC(=O)c1ccnc(-c2cc(C3CC4CCC3N4)cnc2F)c1 (centres unmarked) [Compound 2]
[1]; [9]
  Ki: 0.28 ± 0.01 nM
[2]
  antagonism of the antinociceptive action of nicotine: a potency approaching that of varenicline
[3]
  AcAChBP, Kd: lowest affinity
  Kd: 60 ± 0.14 nM
[4]
  agonist/antagonist effect on α7 nAChR: only an antagonist

## NC(=O)c1ccc(-c2cc(C3CC4CCC3N4)cnc2F)cc1 (centres unmarked) [Compound 1]
[1]
  Ki: 0.12 ± 0.02 nM
[5]
  agonist activity on α4β2 nAChR: mixed partial agonists
[3]
  Kd: 9.8 ± 0.03 nM
[4]
  agonist/antagonist effect on α7 nAChR: agonists

## NC(=O)c1cncc(-c2cc(C3CC4CCC3N4)cnc2F)c1 (centres unmarked) [Compound 5]
[1]; [9]
  Ki: 0.28 ± 0.03 nM
[3]
  Kd: ~30 nM and 30 nM
[4]
  subtype selectivity α4β2 over α7: selective for α4β2 over α7

## NC(=O)c1ccc(-c2cc(C3CC4CCC3N4)cnc2F)nc1 (centres unmarked) [Compound 3]
[1]; [9]
  Ki: 0.94 ± 0.07 nM
[5]
  agonist activity on α4β2 nAChR: mixed partial agonists
[3]
  Kd: 29 ± 0.05 nM
[4]
  agonist/antagonist effect on α7 nAChR: agonists

## CN1CCC[C@H]1c1cccnc1 [Nicotine]
[6]
  Kd: 835 nM

## c1cnc2cc3c(cc2n1)[C@@H]1CNC[C@H]3C1 [Varenicline]
[6]
  Kd: 342 nM

## NC(=O)c1ccc(-c2cc(C3CC4CCC3N4)cnc2F)cn1 (centres unmarked) [Compound 4]
[1]; [9]
  Ki: 0.07 ± 0.002 nM
[3]
  Kd: 33 ± 0.08 nM
[4]
  subtype selectivity α4β2 over α7: selective for α4β2 over α7

## Clc1ccc([C@H]2C[C@@H]3CC[C@H]2N3)cn1 [Epibatidine, (1R,2R,4S)-2-(6-chloro-3-pyridinyl)-7-azabicyclo[2.2.1]heptane]
[5]
  agonist activity on α4β2 nAChR: full agonist
[7]
  Kd: 14 nM
[8]
  agonist activity on α3β4 nAChR: full agonist

## NC(=O)c1cc(-c2cc(C3CC4CCC3N4)cnc2F)ccn1 (centres unmarked) [Compound 6]
[1]; [9]
  Ki: 0.67 ± 0.28 nM
[3]
  Kd: 9.8 ± 0.01 nM
